Assay results published in patent publication US11021493B2, “1,4-thiazine dioxide and 1,2,4-thiadiazine dioxide derivatives as beta-secretase inhibitors and methods of use” (AMGEN INC., priority 2016, dated 2021).

How the values were obtained:
BACE1 [1] = biological target: T1, BACE1 (Homo sapiens (Human), UniProt P56817); assay: In vitro enzymatic BACE1 FRET assay; assay type: biochemical; settings: read-out: BACE1 Enzyme IC50
Target sequence in this assay (P56817 46-501): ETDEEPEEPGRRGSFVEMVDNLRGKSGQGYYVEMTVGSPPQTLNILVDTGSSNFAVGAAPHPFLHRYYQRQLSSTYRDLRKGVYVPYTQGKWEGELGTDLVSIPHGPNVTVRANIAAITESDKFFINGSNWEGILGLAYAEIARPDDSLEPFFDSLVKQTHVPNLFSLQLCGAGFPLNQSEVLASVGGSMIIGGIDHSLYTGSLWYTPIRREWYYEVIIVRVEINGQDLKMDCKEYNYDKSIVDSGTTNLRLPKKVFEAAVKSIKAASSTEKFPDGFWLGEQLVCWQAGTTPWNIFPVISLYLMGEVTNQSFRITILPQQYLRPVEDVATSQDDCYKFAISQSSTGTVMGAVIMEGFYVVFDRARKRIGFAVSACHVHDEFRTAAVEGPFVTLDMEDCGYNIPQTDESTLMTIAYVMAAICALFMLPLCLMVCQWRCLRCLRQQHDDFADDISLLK

BACE1 [2] = biological target: T1, BACE1; assay: In vitro BACE1 cell-based assay (Aβ40 in conditioned medium of cells stably expressing APP, HTRF); settings: Aβ40 in conditioned media after 24 h incubation
Target sequence in this assay (P56817 46-501, species assumed): as the sequence (P56817 46-501) above

human recombinant BACE2 = human recombinant BACE2 (Homo sapiens (Human), UniProt Q9Y5Z0); assay: In vitro enzymatic BACE2 FRET assay; assay type: biochemical; settings: read-out: BACE2 Enzyme IC50
Chain of human recombinant BACE2 (Q9Y5Z0 63-518): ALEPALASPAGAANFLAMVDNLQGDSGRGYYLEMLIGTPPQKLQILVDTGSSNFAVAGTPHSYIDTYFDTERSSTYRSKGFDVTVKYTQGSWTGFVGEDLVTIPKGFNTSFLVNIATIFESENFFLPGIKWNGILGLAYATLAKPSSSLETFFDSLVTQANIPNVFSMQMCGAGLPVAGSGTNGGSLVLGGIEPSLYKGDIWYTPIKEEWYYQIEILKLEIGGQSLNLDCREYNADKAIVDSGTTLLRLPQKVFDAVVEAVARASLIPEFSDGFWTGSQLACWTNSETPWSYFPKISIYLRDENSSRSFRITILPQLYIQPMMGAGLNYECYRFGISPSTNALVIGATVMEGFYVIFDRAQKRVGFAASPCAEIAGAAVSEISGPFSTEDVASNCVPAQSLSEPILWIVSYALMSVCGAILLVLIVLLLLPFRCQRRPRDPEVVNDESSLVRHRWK

Cathepsin D (CatD) = Cathepsin D (CatD) (Homo sapiens (Human), UniProt P07339); assay: In vitro enzymatic Cathepsin D (CatD) FRET assay; assay type: biochemical; settings: read-out: Cat D Enzyme IC50
Chain of Cathepsin D (CatD) (P07339 65-412, species assumed): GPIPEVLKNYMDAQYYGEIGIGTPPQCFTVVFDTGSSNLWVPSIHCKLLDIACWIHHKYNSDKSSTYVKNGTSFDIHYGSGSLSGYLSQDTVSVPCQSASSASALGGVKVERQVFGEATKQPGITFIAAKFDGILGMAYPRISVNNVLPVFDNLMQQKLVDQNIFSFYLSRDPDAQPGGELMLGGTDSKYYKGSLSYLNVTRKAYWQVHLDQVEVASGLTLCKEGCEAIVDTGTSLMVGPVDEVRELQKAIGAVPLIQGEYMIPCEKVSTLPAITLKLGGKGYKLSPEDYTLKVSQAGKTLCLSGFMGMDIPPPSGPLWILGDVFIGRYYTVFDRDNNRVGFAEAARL

| IC50 (BACE1 [1]) | IC50 (BACE1 [2]) | IC50 (human recombinant BACE2) | IC50 (Cathepsin D (CatD)) | SMILES |
| --- | --- | --- | --- | --- |
| 0.007 µM | 0.029 µM | 0.002 µM | 68.8 µM | CN1C(N)=N[C@](C)(c2cc(/C=C(\F)c3cc(F)c(Cl)cn3)ccc2F)CS1(=O)=O [Example 232, (R,Z)-3-amino-5-(5-(2-(5-chloro-4-fluoropyridin-2-yl)-2-fluorovinyl)-2-fluorophenyl)-2,5-dimethyl-5,6-dihydro-2H-1,2,4-thiadiazine 1,1-dioxide] |
| 1.12 µM | 0.41 µM | 2.35 µM | 55.2 µM | C[C@H]1COc2cnc(/C(F)=C/c3ccc(F)c([C@]4(C)CS(=O)(=O)N(C)C(N)=N4)c3)nc2O1 [Example 236, (R)-3-amino-5-(2-fluoro-5-((Z)-2-fluoro-2-((S)-7-methyl-6,7-dihydro-[1,4]dioxino[2,3-d]pyrimidin-2-yl)vinyl)phenyl)-2,5-dimethyl-5,6-dihydro-2H-1,2,4-thiadiazine 1,1-dioxide] |
| 0.016 µM | 0.078 µM | 0.622 µM | 125 µM | C#CCOc1cnc(/C(F)=C/c2ccc(F)c([C@@]3(C)N=C(N)N(C)S(=O)(=O)C34CC4)c2)cn1 [Example 138, (8R)-8-(2-fluoro-5-((Z)-2-fluoro-2-(5-(2-propyn-1-yloxy)-2-pyrazinyl)ethenyl)phenyl)-5,8-dimethyl-4-thia-5,7-diazaspiro[2.5]oct-6-en-6-amine 4,4-dioxide] |
| 0.047 µM | 0.18 µM | 0.011 µM | 108 µM | CC1(C)C(N)=N[C@](C)(c2cc(/C=C(\F)c3ccc(F)cn3)ccc2F)CS1(=O)=O [Example 262, (R,Z)-5-amino-3-(2-fluoro-5-(2-fluoro-2-(5-fluoropyridin-2-yl)vinyl)phenyl)-3,6,6-trimethyl-3,6-dihydro-2H-1,4-thiazine 1,1-dioxide] |
| 0.03 µM | 1.07 µM | 0.143 µM | 17 µM | CC1(C)C(N)=N[C@](C)(c2cc(/C=C(\F)c3cnc(OCC4CCCC4)cn3)ccc2F)CS1(=O)=O [Example 144, (R,Z)-5-amino-3-(5-(2-(5-(cyclopentylmethoxy)pyrazin-2-yl)-2-fluorovinyl)-2-fluorophenyl)-3,6,6-trimethyl-3,6-dihydro-2H-1,4-thiazine 1,1-dioxide] |
| 0.039 µM | 0.318 µM | 0.076 µM | 217 µM | CN1C(N)=N[C@](C)(c2cc(/C=C(\F)c3cnc(Cl)cn3)ccc2F)C(C)(C)S1(=O)=O [Example 182, (R,Z)-3-amino-5-(5-(2-(5-chloropyrazin-2-yl)-2-fluorovinyl)-2-fluorophenyl)-2,5,6,6-tetramethyl-5,6-dihydro-2H-1,2,4-thiadiazine 1,1-dioxide] |
| 0.007 µM | 0.055 µM | 0.181 µM | 49.4 µM | CC#CCOc1cnc(/C(F)=C/c2ccc(F)c([C@]3(CF)CS(=O)(=O)C(C)(C)C(N)=N3)c2)cn1 [Example 194, (S,Z)-5-amino-3-(5-(2-(5-(but-2-yn-1-yloxy)pyrazin-2-yl)-2-fluorovinyl)-2-fluorophenyl)-3-(fluoromethyl)-6,6-dimethyl-3,6-dihydro-2H-1,4-thiazine 1,1-dioxide] |
| 0.001 µM | 0.002 µM | 0.034 µM | 109 µM | CC#CCOc1cnc(/C(F)=C/c2ccc(F)c([C@]3(C)CS(=O)(=O)C(C)(C)C(N)=N3)c2)cn1 [Example 154, (R,Z)-5-amino-3-(5-(2-(5-(but-2-yn-1-yloxy)pyrazin-2-yl)-2-fluorovinyl)-2-fluorophenyl)-3,6,6-trimethyl-3,6-dihydro-2H-1,4-thiazine 1,1-dioxide] |
| 0.007 µM | 0.013 µM | 0.046 µM | 76.2 µM | CN1C(N)=N[C@](C)(c2cc(/C=C(\F)c3ccc(C(F)(F)F)cn3)cc(F)c2F)CS1(=O)=O [Example 273, (R,Z)-3-amino-5-(2,3-difluoro-5-(2-fluoro-2-(5-(trifluoromethyl)pyridin-2-yl)vinyl)phenyl)-2,5-dimethyl-5,6-dihydro-2H-1,2,4-thiadiazine 1,1-dioxide] |
| 0.006 µM | 0.028 µM | 0.007 µM | 11 µM | CN1C(N)=N[C@](C)(c2cc(/C=C(\F)c3ccc(Br)cn3)ccc2F)CS1(=O)=O [Example 247, (R,Z)-3-amino-5-(5-(2-(5-bromopyridin-2-yl)-2-fluorovinyl)-2-fluorophenyl)-2,5-dimethyl-5,6-dihydro-2H-1,2,4-thiadiazine 1,1-dioxide] |
| 0.006 µM | 0.015 µM | 0.184 µM | 41.1 µM | CN1C(N)=N[C@](C)(c2cc(/C=C(\F)c3cnc(C#N)cn3)ccc2F)C2(CC2)S1(=O)=O [Example 147, (R,Z)-5-(2-(3-(6-amino-5,8-dimethyl-4,4-dioxido-4-thia-5,7-diazaspiro[2.5]oct-6-en-8-yl)-4-fluorophenyl)-1-fluorovinyl)pyrazine-2-carbonitrile] |
| 0.086 µM | 0.866 µM | 0.12 µM | > 400 µM | CCCOc1cnc(/C(F)=C/c2ccc(F)c([C@@]3(C)N=C(N)[C@@]4(CF)CC[C@@H]3S4(=O)=O)c2)cn1 [Example 135, (1R,4R,5S)-2-amino-4-(2-fluoro-5-((Z)-2-fluoro-2-(5-propoxypyrazin-2-yl)vinyl)phenyl)-1-(fluoromethyl)-4-methyl-8-thia-3-azabicyclo[3.2.1]oct-2-ene 8,8-dioxide] |
| 0.013 µM | 0.222 µM | 0.057 µM | 155 µM | CC1(C)C(N)=N[C@](CF)(c2cc(/C=C(\F)c3ccc(C#N)cn3)ccc2F)CS1(=O)=O [Example 188, (S,Z)-6-(2-(3-(5-amino-3-(fluoromethyl)-6,6-dimethyl-1,1-dioxido-3,6-dihydro-2H-1,4-thiazin-3-yl)-4-fluorophenyl)-1-fluorovinyl)nicotinonitrile] |
| 0.24 µM | 1.42 µM | 0.121 µM | 40.9 µM | CN1C(N)=N[C@](C)(c2cc(/C=C(/F)c3ccc(Cl)cn3)cc(F)c2F)CS1(=O)=O [Example 151, (R,E)-3-amino-5-(5-(2-(5-chloropyridin-2-yl)-2-fluorovinyl)-2,3-difluorophenyl)-2,5-dimethyl-5,6-dihydro-2H-1,2,4-thiadiazine 1,1-dioxide] |
| 0.207 µM | 0.102 µM | 0.235 µM | 237 µM | CN1C(N)=N[C@](C)(c2cc(/C=C(\F)c3cc4c(cn3)OCO4)ccc2F)CS1(=O)=O [Example 257, (5R)-5-(5-((Z)-2-([1,3]dioxolo[4,5-c]pyridin-6-yl)-2-fluoroethenyl)-2-fluorophenyl)-2,5-dimethyl-5,6-dihydro-2H-1,2,4-thiadiazin-3-amine 1,1-dioxide] |
| 0.001 µM | 0.002 µM | 0.031 µM | 182 µM | CN1C(N)=N[C@](C)(c2cc(/C=C(\F)c3ccc(C#N)cn3)ccc2F)CS1(=O)=O [Example 106, (R,Z)-6-(2-(3-(3-amino-2,5-dimethyl-1,1-dioxido-5,6-dihydro-2H-1,2,4-thiadiazin-5-yl)-4-fluorophenyl)-1-fluorovinyl)nicotinonitrile] |
| 0.003 µM | 0.013 µM | 0.016 µM | 12.7 µM | CN1C(N)=N[C@](C)(c2cc(/C=C(\F)c3cnc(C#CC4CC4)cn3)ccc2F)CS1(=O)=O [Example 248, (R,Z)-3-amino-5-(5-(2-(5-(cyclopropylethynyl)pyrazin-2-yl)-2-fluorovinyl)-2-fluorophenyl)-2,5-dimethyl-5,6-dihydro-2H-1,2,4-thiadiazine 1,1-dioxide] |
| 0.011 µM | 0.011 µM | 0.108 µM | 107 µM | COC[C@H](C)Oc1cnc(/C(F)=C/c2ccc(F)c([C@]3(C)CS(=O)(=O)N(C)C(N)=N3)c2)cn1 [Example 164, (R)-3-amino-5-(2-fluoro-5-((Z)-2-fluoro-2-(5-(((S)-1-methoxypropan-2-yl)oxy)pyrazin-2-yl)vinyl)phenyl)-2,5-dimethyl-5,6-dihydro-2H-1,2,4-thiadiazine 1,1-dioxide] |
| 0.056 µM | 0.442 µM | 0.056 µM | 39.3 µM | CC1(C)C(N)=N[C@](C)(c2cc(/C=C/c3ccc(Cl)cc3)ccc2F)CS1(=O)=O [Example 279, (R,E)-5-amino-3-(5-(4-chlorostyryl)-2-fluorophenyl)-3,6,6-trimethyl-3,6-dihydro-2H-1,4-thiazine 1,1-dioxide] |
| 0.005 µM | 0.006 µM | 0.142 µM | 17 µM | C#C[C@H](C)Oc1cnc(/C(F)=C/c2ccc(F)c([C@]3(C)CS(=O)(=O)N(C)C(N)=N3)c2)cn1 [Example 171, (R)-3-amino-5-(5-((Z)-2-(5-((S)-but-3-yn-2-yloxy)pyrazin-2-yl)-2-fluorovinyl)-2-fluorophenyl)-2,5-dimethyl-5,6-dihydro-2H-1,2,4-thiadiazine 1,1-dioxide] |
| 0.507 µM | 2.53 µM | 0.519 µM | 57.5 µM | CC#C[C@@H](C)Oc1cnc(/C(F)=C/c2ccc(F)c([C@]3(C)CS(=O)(=O)C(C)(C)C(N)=N3)c2)cn1 (single isomer, unassigned) [Example 207] |

| SMILES | IC50 (BACE1 [1]) | IC50 (BACE1 [2]) | IC50 (human recombinant BACE2) | IC50 (Cathepsin D (CatD)) |
| --- | --- | --- | --- | --- |
| CC1(C)C(N)=N[C@](C)(c2cc(/C=C(\F)c3ccc(Cl)cn3)ccc2F)CS1(=O)=O [Example 114, (R,Z)-5-amino-3-(5-(2-(5-chloropyridin-2-yl)-2-fluorovinyl)-2-fluorophenyl)-3,6,6-trimethyl-3,6-dihydro-2H-1,4-thiazine 1,1-dioxide] | 0.009 µM | 0.08 µM | 0.003 µM | 115 µM |
